In patent publication US20200281989A1, “METHOD OF PREPARING A COMPOSITION FOR TREATING CANCER” (priority 2019, published 2020):

Tests used:
Hep3B cells = test: Invasion chamber (transwell) assay / metastatic potential, Hep3B cells; assay type: cell-based, human; details: FIGS. 17A-17E
Experimental: (§1) Another embodiment of the anti-cancer oral composition was prepared by combining lipid Fraction 1 with ethanol to provide a first mixture in a ratio of 5 μg/mL, a second mixture in a ratio of 10 μg/mL, and a third mixture in a ratio of 25 μg/mL. The mixtures and a control (0.1% ethanol) were tested for inhibition of metastatic potential of cancer Hep3B cell line (FIGS. 13A-13E) and cancer Panc-1 cell line (FIGS. 13F-131).
(§2) An aliquot of 0.5 ml Hep3B or Panc-1 cell suspension in serum-free medium with BSA (1 mg/ml) containing 6×10^4 cells/ml was mixed with F6 and then applied to each invasion chamber. An aliquot of 0.5 ml medium with 10% serum was loaded into the bottom of the well. After incubation for 6 hours, cells that invaded to the bottom surface of the transwell were fixed with 70% ethanol, stained with Diff Quik solution (Sysmex), and counted in five selected fields.

[1] = system: human leukemia K562 cells; test: WST-1 cell proliferation assay, K562 leukemia cells; assay type: cell-based; details: for anti-proliferative effect on leukemic K562 cells: WST-1, FIGS. 3B, 4A
Experimental: The graphs show results of different concentrations of the compounds using the WST-1 spectrophotometric detection assay. WST is a colorimetric assay to assess cell proliferation under different treatment conditions. This assay is based on the cleavage of a tetrazolium salt (2-(4-Iodophenyl)-3-(4-nitrophenyl)-5-phenyl-2h-tetrazolium chloride) to form formazan (a colored compound) by mitochondrial dehydrogenases in viable cells. As a result, the assay measures the net metabolic activity of the cells. Human leukemia K562 cell line was purchased from ATCC (Manassas, Va., USA) and plated a day before the experiment in normal growth medium. The next day, the medium was replaced with serum free medium (Gibco #11835-030) to starve the cells for 4 h. Cells were deprived of serum for 4 h before treatment with the lipids to eliminate binding of the compounds to serum proteins. After starvation, K562 cells were then centrifuged. The medium was replaced with fresh IMDM media containing 1% (v/v) FBS and 100 units of PS. Cells (1×104 in 100 L) were seeded into each well with conditioned medium for overnight (20 h) in a 96-well plate to which the test compounds (−ve control ethanol, Ft-3, F-6 and S5) were added at the concentrations indicated. A volume of 10 uL WST-1, cell proliferation assay reagent (Roche Diagnostics, Indianapolis, Ind., USA), was added to each well and incubated for 4 h, and then the wells were read on a plate reader at 450 nm with a reference reading at 650 nm. Reference reading at 650 nm was used for subtracting background readouts.
Another embodiment of the anti-cancer oral composition was prepared by combining lipid Fraction 3 of the neutral lipid fraction and ethanol in a ratio of 20 μg/μL to provide a mixture. The mixture was prepared by dissolving Fraction 3 in pure ethanol then diluting it to the desired concentration with culture medium. Cells (1×10^4) were starved overnight in serum-free medium, then the medium was replaced prior to incubation with IMDM/1% FBS/pen-strep. […]

Panc-1 cells [2] = test: Invasion chamber (transwell) assay, Panc-1 cells; assay type: cell-based, human; details: concentration dependent, 6 hours incubation, FIGS. 19A-19B
Experimental: as §1, §2

[3] = system: human breast cancer cells MDA MB-231; test: WST-1 cell proliferation assay, MDA MB-231 breast cancer cells; assay type: cell-based; details: WST-1, FIG. 4C
Experimental: FIG. 4C is a graph showing the effect of fraction 3 of the neutral lipids, furan (F6), and a steroid (S5) on human breast cancer cells MDA MB-231 using the WST-1 spectrophotometric detection assay. The assay measured the net metabolic activity of the cells. Human breast MDA MB-231 cell line was purchased from ATCC (Manassas, Va., USA). MCF-7 and 1_x 10^4 cells/well/100 uL) and were plated a day before experiment in normal growth medium. The next day, medium was replaced with serum free medium (Gibco #11835-030) to starve the cells for 4 h. Cells were deprived of serum for 4 h before treatment with the lipids to eliminate binding of the compounds to serum proteins. After starvation, Cells (1_x 104 in 100 L) were seeded into each well with conditioned medium overnight (20 h) in a 96-well plate to which the test compounds (−ve control ethanol, Ft-3, F-6 and S5) were added at the concentrations indicated. A volume of 10 uL WST-1, cell proliferation assay reagent (Roche Diagnostics, Indianapolis, Ind., USA), was added to each well and incubated for 4 h. Then, the wells were read on a plate reader at 450 nm with a reference reading at 650 nm. Reference reading at 650 nm was used for subtracting background readouts.

BxPC3 cells = test: Proliferation of BxPC3 pancreatic cancer cells; assay type: cell-based, human; details: F6 5-50 μg/ml for 72 hours, FIG. 18A
Capan2 cells = test: Proliferation of Capan2 pancreatic cancer cells; assay type: cell-based, human; details: F6 5-50 μg/ml for 72 hours, FIG. 18A
breast MCF-7 cells = test: WST-1 cell proliferation assay, MCF-7 breast cancer cells; assay type: cell-based, human; details: WST-1, FIG. 4B
Experimental: FIG. 4B is a graph showing the effect of fraction 3 of the neutral lipids, furan (F6), and a steroid found in fraction 3 of the neutral lipids, (S5) and the two isolated components from fraction 3 of the neutral lipids on breast MCF-7 cells using the WST-1 spectrophotometric detection assay. WST was performed to assess cell proliferation under different treatment conditions. The assay measured the net metabolic activity of the cells. Human breast MCF-7 cell line was purchased from ATCC (Manassas, Va., USA). 1×10^4 cells/well/100 L) and were plated a day before experiment in normal growth medium. The next day, the medium was replaced with serum free medium (Gibco #11835-030) to starve the cells for 4 h. Cells were deprived of serum for 4 h before treatment with the lipids to eliminate binding of the compounds to serum proteins. After starvation, the medium was replaced with fresh IMDM media containing 1% (v/v) FBS and 100 units of PS. Cells (1×104 in 100 L) were seeded into each well with conditioned medium overnight (20 h) in a 96-well plate to which the test compounds (−ve control ethanol, Fr-3 of the neutral lipids, F6 and S5) were added at the concentrations indicated. […] Then, the wells were read on a plate reader at 450 nm with a reference reading at 650 nm. Reference reading at 650 nm was used for subtracting background readouts.

[4] = system: human pancreatic cancer cells (Panc-1 cells); test: Cell growth inhibition, Panc-1 pancreatic cancer cells; assay type: cell-based; details: F6 5-50 μg/ml for 72 hours, FIG. 18A
Panc-1 cells [5] = test: Apoptosis induction (cell cycle, caspase-3), pancreatic cancer cells; assay type: cell-based, human; details: FIGS. 18A-18F

Row | SMILES | Hep3B cell metastasis (markers migration and invasion) (Hep3B cells) | anti-proliferative effect on leukemic K562 cells [1] | invasion of Panc-1 cells (Panc-1 cells [2]) | anti-proliferative effect on breast MDA MB-231 cells [3] | inhibition of proliferation of BxPC3 cells (BxPC3 cells) | inhibition of proliferation of Capan2 cells (Capan2 cells) | anti-proliferative effect on breast MCF-7 cells (breast MCF-7 cells) | inhibition of proliferation of Panc-1 cells [4] | mechanism of regulation of pancreatic cancer cell growth (Panc-1 cells [5]) | effect of combination of Fraction 3 and Gleevec on K562 cell survival ([1]; Gleevec 2 uM with Fraction 3, WST-1, FIG. 3B)
1 | CCCCCc1oc(CCCCCCCCCCC(=O)O)c(C)c1C [Fraction F6, 12,15-epoxy-13,14-dimethyleicosa-12,14-dienoic acid] | inhibit cancer Hep3B cell metastasis | anti-proliferative effects | inhibited invasion | anti-proliferative effects | potently inhibited proliferation | potently inhibited proliferation | anti-proliferative effects | potently inhibited proliferation | induction of apoptosis | 
2 | CC(C)CCC[C@@H](C)[C@H]1CC[C@H]2[C@@H]3CC=C4C=CCC[C@]4(C)[C@H]3CC[C@]12C [Fraction S5, cholesta-3,5-diene] | inhibit cancer Hep3B cell metastasis | anti-proliferative effects |  | anti-proliferative effects |  |  | anti-proliferative effects |  |  | 
3 | Cc1ccc(NC(=O)c2ccc(CN3CCN(C)CC3)cc2)cc1Nc1nccc(-c2cccnc2)n1 [Gleevec, reference compound] |  |  |  |  |  |  |  |  |  | potentiated the anti-proliferative effect
